We go through 12 compounds from PubChem BioAssay (NCI).

Some test systems named below: M14 melanoma; UACC-62 melanoma; T-47D breast; MALME-3M melanoma; RPMI-8226 leukemia; U251 CNS; HS 578T breast; OVCAR-5 ovarian; SK-MEL-2 melanoma; SF-268 CNS; ACHN renal; 786-0 renal.
What all share (test): DTP human tumour cell line panel, 48 h

Structures are written as SMILES.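 The compound was tested at five concentrations on cells cultured in 96-well plates, with a 48-hour exposure period. Definition used: TGI = concentration required for complete inhibition of growth.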

As usually defined, the TGI is the concentration giving total growth inhibition. `COc1ccc(NC(C)=O)cc1C1CCC(=O)N1` (stereo not drawn): the TGI in the assay with M14 melanoma, with UACC-62 melanoma, in the assay on T-47D breast, with MALME-3M melanoma, with RPMI-8226 leukemia and with U251 CNS was above 100 µM throughout. Moreover, the TGI in the assay with HS 578T breast, with OVCAR-5 ovarian, in the assay on SK-MEL-2 melanoma, with SF-268 CNS, in the assay with ACHN renal and in the assay on 786-0 renal was above 100 µM each time.

As to `CCOC(=O)C1C(c2ccc(OC)cc2)c2c([nH][nH]c2=O)CC1(O)OCC` (stereo not drawn), the TGI in the assay with M14 melanoma, with UACC-62 melanoma, with T-47D breast, with MALME-3M melanoma, in the assay on RPMI-8226 leukemia and in the assay on U251 CNS was above 100 µM in each case. The TGI with HS 578T breast, in the assay with OVCAR-5 ovarian, with SK-MEL-2 melanoma, in the assay with SF-268 CNS, with ACHN renal and in the assay on 786-0 renal was above 100 µM in each case.

With `CN(/N=C/c1ccccn1)C1=NCCCCN1`, the TGI with M14 melanoma, in the assay with UACC-62 melanoma, in the assay with T-47D breast, with MALME-3M melanoma, with RPMI-8226 leukemia and in the assay with U251 CNS was above 100 µM in each case. For the same compound, the total growth inhibition concentration (TGI) with HS 578T breast, in the assay with OVCAR-5 ovarian, in the assay with SK-MEL-2 melanoma, with SF-268 CNS, in the assay on ACHN renal and in the assay on 786-0 renal was above 100 µM throughout.

`CC(=O)NC1C(O)C(O)C(CO)OC1n1ncc(=O)[nH]c1=O` (stereo not drawn): the TGI with M14 melanoma, in the assay on UACC-62 melanoma, in the assay with T-47D breast, in the assay with MALME-3M melanoma, in the assay on RPMI-8226 leukemia and in the assay on U251 CNS was above 100 µM in each case. The TGI in the assay with HS 578T breast, with OVCAR-5 ovarian, with SK-MEL-2 melanoma, in the assay on SF-268 CNS, with ACHN renal and in the assay with 786-0 renal was above 100 µM each time.

With `CC1(C)CCCCCCC2OC2CCCCCC(C)(C)C1=O` (stereo not drawn), the concentration for total growth inhibition (TGI) is above 100 µM in the assay with M14 melanoma; above 100 µM in the assay on UACC-62 melanoma; above 100 µM in the assay with T-47D breast; above 100 µM in the assay on MALME-3M melanoma; above 95 µM in the assay with RPMI-8226 leukemia; 63.2 µM with U251 CNS. Besides, the TGI in the assay on HS 578T breast was above 100 µM; with OVCAR-5 ovarian, above 100 µM; with SK-MEL-2 melanoma it was above 65.4 µM; in the assay with SF-268 CNS it was above 100 µM; in the assay with ACHN renal it was above 65 µM; in the assay with 786-0 renal, above 100 µM.

Consider `CC(=O)OC1COC(n2c(-c3ccc(Cl)cc3)cc(-c3ccccc3)c(C#N)c2=S)C(OC(C)=O)C1OC(C)=O` (stereo not drawn), for which the TGI in the assay on M14 melanoma is above 31.6 µM; in the assay on UACC-62 melanoma it was above 31.6 µM; in the assay with T-47D breast it was 54 µM; with MALME-3M melanoma, above 100 µM; in the assay with RPMI-8226 leukemia it was above 100 µM; in the assay with U251 CNS, 15.5 µM. For the same compound, the TGI with HS 578T breast is 24.6 µM; in the assay on OVCAR-5 ovarian, above 100 µM; with SK-MEL-2 melanoma, 29.4 µM; in the assay on SF-268 CNS it was above 39.3 µM; in the assay on ACHN renal, above 31.6 µM; in the assay with 786-0 renal, 26.8 µM.

`COC(=O)C(=O)C(C(=O)C(=O)Nc1ccccc1C(C)=O)c1nc2ccc(C(=O)c3ccccc3)cc2[nH]c1=O` (stereo not drawn): the TGI with M14 melanoma, with UACC-62 melanoma, in the assay with T-47D breast, with MALME-3M melanoma, in the assay with RPMI-8226 leukemia and in the assay on HS 578T breast was above 100 µM throughout. Also, the TGI in the assay on OVCAR-5 ovarian, in the assay on SK-MEL-2 melanoma, in the assay on SF-268 CNS, in the assay with ACHN renal and with 786-0 renal was above 100 µM throughout.

On to `CCOC(=O)C(NC(=O)CC(C)C)(Nc1ccc(S(=O)(=O)Nc2nc(C)cc(C)n2)cc1)C(F)(F)F` (stereo not drawn), for which the TGI in the assay on M14 melanoma, in the assay on UACC-62 melanoma, in the assay on T-47D breast, with MALME-3M melanoma, in the assay with RPMI-8226 leukemia and in the assay with U251 CNS was above 100 µM throughout. Moreover, the TGI in the assay on HS 578T breast, in the assay with OVCAR-5 ovarian, with SK-MEL-2 melanoma, in the assay on SF-268 CNS, with ACHN renal and in the assay with 786-0 renal was above 100 µM throughout.

Turning to `O=C(O)c1ccc2c(c1)CC1(C2)Cc2ccccc2C1=O` (stereo not drawn), the total growth inhibition concentration (TGI) with M14 melanoma, in the assay on UACC-62 melanoma, with T-47D breast, with MALME-3M melanoma, in the assay with RPMI-8226 leukemia and in the assay on U251 CNS was above 100 µM each time. Also, the TGI in the assay on HS 578T breast, in the assay on OVCAR-5 ovarian, in the assay with SK-MEL-2 melanoma, in the assay with SF-268 CNS, with ACHN renal and in the assay with 786-0 renal was above 100 µM each time.

For `COc1cc(C2c3cc4c(cc3OC(Nc3ccccc3)C2C)OCO4)cc(OC)c1OC` (stereo not drawn), the TGI in the assay with M14 melanoma is above 86.5 µM; in the assay with UACC-62 melanoma, above 100 µM; with T-47D breast it was above 100 µM; in the assay on MALME-3M melanoma, above 100 µM; in the assay with RPMI-8226 leukemia, above 100 µM; with U251 CNS, 21.3 µM. The TGI in the assay on HS 578T breast is above 78.5 µM; in the assay on OVCAR-5 ovarian it was above 100 µM; in the assay with SK-MEL-2 melanoma, above 100 µM; in the assay with SF-268 CNS it was above 100 µM; in the assay with ACHN renal, above 61.4 µM; in the assay with 786-0 renal, above 100 µM.

`COc1c2ccccc2c(OC)c2nc(C)ccc12`: the TGI in the assay with M14 melanoma is above 100 µM; in the assay with UACC-62 melanoma, above 100 µM; in the assay with T-47D breast it was above 100 µM; in the assay with MALME-3M melanoma it was above 100 µM; in the assay on RPMI-8226 leukemia, above 100 µM; in the assay with U251 CNS it was above 46.4 µM. In addition, the TGI in the assay with HS 578T breast, with OVCAR-5 ovarian, in the assay on SK-MEL-2 melanoma, in the assay on SF-268 CNS, in the assay with ACHN renal and in the assay with 786-0 renal was above 100 µM in each case.

For `COc1ccc(-c2c(CN3CCOCC3)sc3nc4ccccc4n23)cc1`, the TGI in the assay with M14 melanoma is above 100 µM; in the assay on UACC-62 melanoma, above 100 µM; in the assay on T-47D breast, above 100 µM; in the assay with MALME-3M melanoma it was above 100 µM; in the assay on RPMI-8226 leukemia it was 23.4 µM; with U251 CNS it was 41.5 µM. For the same compound, the TGI in the assay with HS 578T breast is above 69.7 µM; in the assay with OVCAR-5 ovarian, above 74.7 µM; in the assay on SK-MEL-2 melanoma it was above 100 µM; with SF-268 CNS, 98.2 µM; with ACHN renal it was above 100 µM; in the assay on 786-0 renal, above 76.8 µM.
